# From US10577322B2, “5-methoxytryptophan and its derivatives and uses thereof” (National Health Research Institutes, priority 2015, dated 2020)
# Columns and labels:
# COX-2 = assay: LPS-induced COX-2 expression in peritoneal macrophages (western blot); format: cell-based; settings: primary mouse peritoneal macrophages, LPS 8 h
# Method: For peritoneal macrophage isolation, C57BL/6J mice were injected intraperitoneally with 2 ml of 4% thioglycollate. Four days after injection, the peritoneal cavity was washed with 5 ml of ice-cold RPMI1640 medium, and cells from the peritoneal exudates were collected by centrifugation, and suspended in RPMI1640 medium, then seeded on 15-cm dishes and allowed to adhere for 4 h. Floating cells were washed out, and adherent cells were used as peritoneal macrophages in the experiments. The cells were incubated with or without LPS (100 ng/ml) for the indicated time before each experiment, as in the protocol for the RAW264.7 cells.
# Furthermore, peritoneal macrophages were stimulated with LPS with or without 5-MTP. After 8 h, COX-2 protein expression was determined by western blot. The experiments were repeated 3 times with similar results.
# neutrophil infiltration = assay: Neutrophil infiltration in lung tissues (Ly6G staining); format: in vivo, mice
# Method: Prior to immunohistochemical detection of COX-2, iNOS, Ly6g, or cleaved caspase-3 in lung sections, sections were deparaffinized with xylene, progressively rehydrated through graded alcohols. Antigen sites were retrieved by heating the sections on slides in pH 8 EDTA antigen. retrieval (Trilogy; Cell Marque Corporation) in electric pressure cooker for 15 min. […] All antibodies described hereafter were diluted in blocking buffer. Sections were incubated at room temperature for 2 h with primary antibody and then washed in PBST. The sections were incubated with primary antibody amplifier quanta (Thermo) for 10 minutes. After rinsing with PBST, the sections were incubated with HRP Polymer Quanto (Thermo) for 10 minutes and washed three times with PBST. COX-2, iNOS, Ly6g and cleaved caspase-3 were visualized by the addition of DAB Quanto Chromogen: Substrate for 3 minutes. Tissues were also counterstained with hematoxylin.
# Thirty min after saline or 5-MTP administration, mice were injected intraperitoneally with LPS at 4 h, 12 h, 16 h and 24 h. Paraffin-embedded lung tissue specimens were subjected to immunohistochemical Ly6G staining for determination of neutrophil infiltration in lung tissues. The results are shown in FIG. 8A, in which scale bars represent 100 μm.
# caspase-3 = assay: Caspase-3 activity in splenocytes (fluorogenic substrate); format: in vivo, mice; settings: 5-MTP 100 mg/kg, 16 h
# Method: Caspase-3 activity was determined by the cleavage of the fluorometric substrate z-DEVD-AMC (Upstate Biotechnology) as previously described (Kuo, C. C., Liang, C. M., Lai, C. Y. & Liang, S. M. Involvement of heat shock protein(Hsp)90 beta but not Hsp90 alpha in antiapoptotic effect of CpG-B oligodeoxynucleotide. J Immunol 178, 6100-6108 (2007)).
# In addition, caspase-3 activity in splenocytes of mice treated with saline, LPS or LPS plus 5-MTP (100 mg/kg) for 16 h was measured by fluorogenic substrate as described above. The results are shown in FIG. 9B, in which the error bare denotes mean±SD (n=6 mice/group).
# p38 MAPK = assay: LPS-induced p38 MAPK phosphorylation in RAW264.7 cells (immunoblot); format: cell-based, mouse; settings: LPS 4 h
# Method: (§1) Cellular protein were resolved by 5% to 20% SDS-PAGE and transferred to nitrocellulose membranes and blotted with specific antibodies as previously described (Lee, G. L., et al.).
# (§2) After pretreating RAW264.7 cells with different concentrations of 5-MTP for 30 min, cells were stimulated with LPS for 4 h. Cell lysates were immunoblotted with antibodies for p38, phospho-p38 (p-p38), ERK½, phospho-ERK½ (p-ERK½) or β-actin. […] Activation of p38 MAPK in macrophages is required for TLR-induced NF-κB activation, which is one of the key factors affecting TLR-induced cytokine production. Thus, we evaluated the effect of 5-MTP on LPS-induced. NF-κB activation.
# ERK½ = assay: LPS-induced ERK½ phosphorylation in RAW264.7 cells (immunoblot); format: cell-based, mouse; settings: LPS 4 h
# Method: as §1, §2
# vascular calcification = assay: High fat diet-induced arterial calcification in ApoE-deficient mice (von Kossa); format: in vivo; settings: 23.4 mg/kg 3 times a week i.p., 20 weeks
# Method: ApoE-deficient mice were fed with on a Western high fat diet containing 1.25% cholesterol and 21% fat (Research Diets) starting at 6 weeks of age. The mice were simultaneously treated with vehicle (PBS) or 5-MTP (23.4 mg/kg body weight, 3 times a week) by intraperitoneal injection. After 20 weeks, the aortic trees were dissected and lesions examined in the aortic arch and its branches. Vascular calcifications in the aortic root were evaluated by von Kossa staining.
# Vascular smooth muscle cell (VSMC) calcification is the major phenomenon to induce atherosclerotic vascular calcification in cardiovascular disease (CVD). We next investigated the effect of 5-MTP derivatives on VSMC calcification.
# ligated carotid arteries = assay: Neointima formation model of carotid artery ligation; format: in vivo, mice; settings: 100 mg/kg IP 3 times a week, four weeks after ligation
# Method: Approximately 12-week-old male C57BL/6 wild-type mice ational Laboratory Animal Center, Taiwan) were subjected to a neointima formation model by ligating the left common carotid artery (LCCA). The Institutional. Animal Care and Use Committee of National Health Research Institutes, Taiwan approved all experimental procedures (#NHRI-IACUC-101144-A). Mice were anesthetized with tribromoethanol solution at a dose of 250 mg/kg by IP injection. After assessing the level of anesthesia by checking the pedal reflex, the LCCA was exposed through a midline incision in the neck. […] Following surgery, mice were treated with vehicle (PBS) or 100 mg/kg of 5-MTP (Sigma, M4001) by IP injection 3 times a week. 5-MTP was dissolved in 0.05 N HCl (made in PBS) first, pH adjusted to 7.4 by NaOH, and then a stock solution of 6.5 mg/mL was prepared with PBS. The stock solution was then sterilized by filtering through a 0.22 μm-filter before use. At indicated time points (4, 7, and 28 d after surgery), mice were anesthetized with tribromoethanol solution (500-750 mg/kg), perfused with saline, followed by 10% neutral-buffered-formalin. The contralateral control (right common carotid artery) and ligated LCCA were then carefully dissected, excised, and immersed in 10% formalin before processing and embedding in paraffin. […]
structure (smiles),measurement,setting,value
"COc1ccc2[nH]cc(C[C@H](N)C(=O)O)c2c1 [5-MTP, 5-methoxytryptophan]",LPS-induced COX-2 expression,COX-2,inhibited
same,neutrophil infiltration in lung tissues,neutrophil infiltration; 5-MTP at 100 mg/kg,reduced the infiltration almost to the basal level
same,neutrophil infiltration in lung tissues,"neutrophil infiltration; LPS, 4 h, 12 h, 16 h and 24 h",dose-dependently reduced
same,LPS-induced caspase-3 cleavage in spleen cells,caspase-3,prevented
same,phosphorylation of p38 MAPK,p38 MAPK,dose-dependently blocked
same,phosphorylation of ERK½,ERK½,but not that of ERK½
same,high fat diet-induced vascular calcification,vascular calcification,prevented
same,intima/media area ratio,ligated carotid arteries,0.58±0.11
same,intimal thickening,ligated carotid arteries,reduced
